{"source": "patent US4657892A", "about": "“Pharmacologically active peptides” (priority 1983, dated 1987)", "key": {"[1]": {"test_system": "isolated guinea-pig ileum", "assay": "opioid activity in the electrically stimulated guinea-pig ileum preparation", "format": "cell-based", "conditions": "for rel. value Der. = 100 / rel. value Nor. = 100: relative potency; for rel. value Der. = 100: dermorphin IC50 = 100%; for rel. value Nor. = 100: normorphine IC50 = 100%", "description": "As biological test system for determination of the opioid activity the ileum preparation of the guinea-pig was used (detailed description German application No. 29 21 216, p. 24). […] In addition for a better understanding the IC50 -value can be expressed as 100% for the opiates normorphine and dermorphin (DT-OS No. 30 34 897) and the relative activity of the single substances can be given in comparison to normorphine or dermorphine. The indication of the relative potency has the advantage that by this variations of the sensitivity of the assay are neutralized.\nThe (*) marked values of table 1 correspond to those which have been described by Castiglione et al. (Peptides, 2, p. 266, table 1, substances 1 and 3: column GPI=guinea-pig ileum preparation).\nIC50 -values (nM), see description, of two peptides of the invention (III an IV) in comparison to those of the prior art (dermorphin,I,II) as measured in the isolated guinea-pig ileum. […] The inhibiting effect of the substances I, II, III, and IV was antagonized by addition of the specific opiate antagonist naloxone (final concentration in the organ bath 900 nM); upon further addition of the substances I to IV to the organ bath (in presence of naloxone) no further inhibition could be observed; the inhibiting effect of the substances I-IV has therefore to be considered as specific opiate-like."}, "α-chymotrypsin": {"molecular_target": "T1, α-chymotrypsin (Bos taurus, UniProt P00766, DEL14-15/DEL147-148)", "T1 construct": "purchased Serva, Heidelberg", "assay": "enzymatic stability against α-chymotrypsin, remaining activity assayed on guinea-pig ileum", "format": "in vitro ADME", "conditions": "1 mg peptide, 50 μg α-chymotrypsin, Krebs-Ringer solution, 5 hours at 37° C.", "description": "1 mg of each of the peptides dermorphin, I, II, III and IV (table 1) were dissolved in 1 ml freshly prepared Krebs-Ringer solution and mixed together with 50 μg α-chymotrypsin (Serva, Heidelberg, dissolved in 50 μl Krebs-Ringer solution); immediately after mixing, a 100 μl aliquot was removed and heated up to 95° C. for 15 minutes. (The heating was employed in order to inactivate the enzyme). This aliquot removed, will be later used for reference as initial value (Zero-value of incubation time). The remaining 950 μl of the peptide/enzyme mixture were incubated for 5 hours at 37° C.; the incubation period was also terminated by heating up to 95° C.\nAfter centrifugation identical aliquots of the supernatants were assayed quantitatively for their opiate-like effect and compared with the zero-value; and guinea-pig ileum was also used as assay system (as above described)."}, "[2]": {"test_system": "isolated guinea-pig ileum", "conditions": "* marked, from Castiglione et al., Peptides 2, p. 266, read-out: IC50 (* values described by Castiglione et al.); cited from earlier work"}}, "note": "“Also recorded” adds a separate entry of the source. Read-outs that look alike come from different tables or passages of the source. Non-standard residues stand in square brackets, D forms with d. Residues, ends and D or L forms follow the SMILES beside them."}
{"smiles": "C[C@@H](NC(=O)[C@@H](N)Cc1ccc(O)cc1)C(=O)N[C@@H](Cc1ccccc1)C(=O)NCC(=O)N[C@@H](Cc1ccc(O)cc1)C(=O)N1CCC[C@H]1C(=O)N[C@@H](CO)C(N)=O", "note": "[Dermorphin]", "values": [{"measurement": "rel. value Der. = 100", "setting": "[1]", "result": 100}, {"measurement": "rel. value Nor. = 100", "setting": "[1]", "result": 3143}, {"measurement": "opiate-like activity remaining after incubation with α-chymotrypsin compared to zero-value", "setting": "α-chymotrypsin", "result": "nearly fully destroyed"}, {"measurement": "IC50", "setting": "[2]", "result": 3.5, "unit": "nM"}]}
{"smiles": "Oc1ccc2c3c1O[C@H]1[C@@H](O)C=C[C@H]4[C@@H](C2)NCC[C@@]341", "note": "[Normorphine]", "values": [{"measurement": "IC50", "setting": "[1]; Cavia porcellus, isolated guinea-pig ileum, 7 experiments, read-out: IC50 (inhibition of electrically induced contractions by 50%)", "result": 110, "unit": "nM"}, {"measurement": "rel. value Der. = 100", "setting": "[1]", "result": 3.2}, {"measurement": "rel. value Nor. = 100", "setting": "[1]", "result": 100}]}
{"smiles": "C[C@@H](NC(=O)[C@@H](N)Cc1ccc(O)cc1)C(=O)N[C@@H](Cc1ccccc1)C(=O)N1CCC[C@H]1C(=O)N[C@@H](Cc1ccc(O)cc1)C(N)=O", "note": "[Substance I, Tyr--D-Ala--Phe--Pro--Tyr--NH2] (H-Y[dA]FPY-NH2)", "values": [{"measurement": "opiate-like activity remaining after incubation with α-chymotrypsin compared to zero-value", "setting": "α-chymotrypsin", "result": "higher stability than substance II"}]}
{"smiles": "C[C@@H](NC(=O)[C@@H](N)Cc1ccc(O)cc1)C(=O)N[C@@H](Cc1ccccc1)C(=O)NCC(=O)N[C@@H](Cc1ccc(O)cc1)C(N)=O", "note": "[Substance II, Tyr--D-Ala--Phe--Gly--Tyr--NH2] (H-Y[dA]FGY-NH2)", "values": [{"measurement": "opiate-like activity remaining after incubation with α-chymotrypsin compared to zero-value", "setting": "α-chymotrypsin", "result": "nearly fully destroyed"}]}
{"smiles": "C[C@@H](NC(=O)[C@H](Cc1ccccc1)NC(=O)[C@@H](C)NC(=O)[C@@H](N)Cc1ccc(O)cc1)C(=O)N[C@@H](Cc1ccc(O)cc1)C(N)=O", "note": "[Substance III, Tyr--D-Ala--Phe--D-Ala--Tyr--NH2] (H-Y[dA]F[dA]Y-NH2)", "values": [{"measurement": "opiate-like activity remaining after incubation with α-chymotrypsin compared to zero-value", "setting": "α-chymotrypsin", "result": "higher stability towards proteolytic enzymes (compared to II); also recorded: full opiate-like activity"}]}
{"smiles": "C[C@@H](NC(=O)[C@H](Cc1ccccc1)NC(=O)[C@@H](C)NC(=O)[C@@H](N)Cc1ccc(O)cc1)C(=O)N[C@@H](Cc1ccccc1)C(N)=O", "note": "[Substance IV, Tyr--D-Ala--Phe--D-Ala--Phe--NH2] (H-Y[dA]F[dA]F-NH2)", "values": [{"measurement": "opiate-like activity remaining after incubation with α-chymotrypsin compared to zero-value", "setting": "α-chymotrypsin", "result": "full opiate-like activity"}]}
